Laboratory results from patent US20250059174A1, “Pharmaceutical Compounds and Compositions as C-Kit Kinase Inhibitors” (Enanta Pharmaceuticals, Inc., priority 2023, published 2025).

Key:
[1] = molecular target: Recombinant human c-KIT kinase (Homo sapiens (Human), UniProt P10721); assay: c-KIT kinase chemiluminescence assay (ADP-Glo); assay type: biochemical; details: ATP 50 μM
Protocol: The c-KIT Kinase Enzyme System (V4498) and ADP-Glo™ Kinase Assay kit (V6930) were purchased from Promega (Madison, WI). DMSO (D2650) was purchased from Sigma-Aldrich (Burlington, MA).
Kinase Reaction: The kinase assay was based on the recommended protocol by c-KIT Kinase Enzyme System from Promega. Recombinant human c-KIT kinase in 3 μL of assay buffer (40 mM Tris pH 7.5, 20 mM MgCl2, 0.1 mg/mL BSA and 50 μM DTT) was added to the test or high control wells and 3 μL of assay buffer was added to the low control wells. The microplate was centrifuged at 800 rotations per minute (rpm) for 60 s and incubated at room temperature (RT) for 30 min. Next, 2 μL of buffered ATP and polyEY substrate solution was added to all wells. The microplate was centrifuged at 800 rpm for 60 s and incubated at RT for 2 h.
ADP detection with ADP-Glo™ Kinase Assay: After the kinase reaction incubation, 5 μL of ADP-Glo™ reagent was added to all wells. The microplate was centrifuged at 800 rpm for 60 s and incubated at RT for 40 min. Ten microliter (10 μL) of Kinase Detection Reagent (Luciferin-Luciferase system) was then added to all wells. The microplate was centrifuged at 800 rpm for 60 s and incubated at RT for 60 min. Kinase activity was measured as increase in luminescence at RT in an Envision plate reader equipped with 560 nm filters and operating in endpoint mode. Data Analysis: Endpoint chemiluminescence from high and low control wells were used to calculate normalized c-KIT activity at various concentrations of test compounds. The normalized activities were fitted to inhibitor-versus-normalized response fit in GraphPad Prism 7 to determine half-maximal inhibitory concentration (IC50) and hill coefficient values (H).
Where I is the inhibitor concentration and H is the Hill coefficient.

M-07e cells = assay: M-07e cellular assay (SCF-mediated cell proliferation); assay type: cell-based; details: Homo sapiens, 72 hours, CellTiter Glo
Protocol: M-07e cells (Creative Bioarray, CSC-C0249) which endogenously express human c-KIT were used to evaluate the effect of compounds on stem cell factor (SCF)-mediated cell proliferation. M-07e cells were cultured in growth media (RPMI+10% FBS+1% penicillin/streptomycin+10 ng/mL GM-CSF) at 5E5-1.5E6 cells/mL, replenishing media every 3-4 days. 1.5E4 cells were seeded per well in 384 well tissue culture treated plates in 20 μL assay media (RPMI+[…]+1% penicillin/streptomycin) without growth factor stimulation and incubated at 37° C. in a CO2 humidity-controlled incubator. Twenty-four hours later, three-fold serially diluted test compounds in media containing SCF (at the previously determined EC90) were added to the plated M-07e cells and incubated for an additional 72 hours. Cell viability was determined by adding 25 μL CellTiter Glo (Promega) to the cells and the luminescence was measured using a Perkin Elmer Envision plate reader. The EC50 was determined using GraphPad Prism. Percent cell growth was determined after normalizing the curve to the mean RLU high control (no compound control wells) at 100% and the mean RLU low control (no SCF control wells) at 0%.

Chain of Recombinant human c-KIT kinase (P10721 26-976): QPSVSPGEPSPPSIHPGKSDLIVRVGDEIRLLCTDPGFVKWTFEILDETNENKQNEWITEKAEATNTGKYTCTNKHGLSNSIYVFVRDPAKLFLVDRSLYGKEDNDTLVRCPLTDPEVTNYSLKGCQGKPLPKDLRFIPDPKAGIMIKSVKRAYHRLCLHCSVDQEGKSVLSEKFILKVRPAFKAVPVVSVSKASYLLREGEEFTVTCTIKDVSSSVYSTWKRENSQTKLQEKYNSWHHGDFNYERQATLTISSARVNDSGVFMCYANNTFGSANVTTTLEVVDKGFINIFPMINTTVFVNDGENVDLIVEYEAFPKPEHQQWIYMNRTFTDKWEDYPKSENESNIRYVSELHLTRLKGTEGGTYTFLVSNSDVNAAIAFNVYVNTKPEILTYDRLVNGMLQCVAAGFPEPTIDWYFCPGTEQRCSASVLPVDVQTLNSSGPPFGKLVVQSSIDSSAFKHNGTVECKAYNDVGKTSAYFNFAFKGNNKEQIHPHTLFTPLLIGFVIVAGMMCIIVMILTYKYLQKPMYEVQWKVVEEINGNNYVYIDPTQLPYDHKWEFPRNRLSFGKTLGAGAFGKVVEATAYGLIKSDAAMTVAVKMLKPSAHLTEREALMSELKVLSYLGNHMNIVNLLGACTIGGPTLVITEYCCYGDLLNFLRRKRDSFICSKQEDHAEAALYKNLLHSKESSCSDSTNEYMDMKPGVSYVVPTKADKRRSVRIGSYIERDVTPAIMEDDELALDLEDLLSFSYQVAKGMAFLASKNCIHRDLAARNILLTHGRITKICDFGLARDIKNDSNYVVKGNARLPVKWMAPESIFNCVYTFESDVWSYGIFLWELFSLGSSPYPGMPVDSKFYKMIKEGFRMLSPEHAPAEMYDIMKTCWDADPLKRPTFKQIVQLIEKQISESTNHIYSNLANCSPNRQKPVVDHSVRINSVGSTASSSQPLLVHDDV

Row | Compound | IC50 [1] [nM] | EC50 (M-07e cells) [nM]
1 | Cc1ccc(-c2noc([C@H]3C[C@@H]3F)n2)cc1NC(=O)c1cnn2ccc(N3CC(CO)(CCl)C3)cc12 [Example 182] | < 100 | < 100
2 | Cc1ncc(-c2noc([C@H]3C[C@@H]3F)n2)cc1NC(=O)c1cnn2ccc(N3CC4(C3)CC(O)(C(F)F)C4)cc12 [Example 281-63] | 100 to 1000 | < 100
3 | Cc1ccc(-c2noc([C@H]3C[C@@H]3F)n2)cc1NC(=O)c1cnn2ccc(N3CCCC4(COC4)C3)cc12 [Example 201] | < 100 | < 100
4 | Cc1ccc(-c2noc([C@H]3C[C@@H]3F)n2)cc1NC(=O)c1cnc(-c2ccc3c(c2)C2(CCNCC2)C(=O)N3)o1 [Example 308-9] | 100 to 1000 | > 1000
5 | Cc1ccc(-c2noc([C@H]3C[C@@H]3F)n2)cc1NC(=O)c1cnn2ccc(O[C@@H]3CCOC3)cc12 [Example 220] | < 100 | 100 to 1000
6 | Cc1ccc(-c2noc([C@H]3C[C@@H]3F)n2)cc1NC(=O)c1cnn2ccc(-c3cnc(C(F)(F)F)nc3)cc12 [Example 157] | 100 to 1000 | 100 to 1000
7 | Cc1ccc(-c2noc([C@H]3C[C@@H]3F)n2)cc1NC(=O)c1cnn2ccc(NC(=O)OCc3ccccc3)cc12 [Example 95] | 100 to 1000 | 100 to 1000
8 | Cc1ccc(-c2ccn3ncc(C(=O)Nc4cc(-c5noc([C@H]6C[C@@H]6F)n5)ccc4C)c3c2)c(C)n1 [Example 171-15] | < 100 | < 100
9 | Cc1ccc(-c2noc([C@H]3C[C@@H]3F)n2)cc1NC(=O)c1cnn2cc(-c3cn(C4CC(F)(F)C4)nn3)ccc12 [Example 115] | < 100 | < 100
10 | COc1ccc2c(C(=O)Nc3cc(-c4noc([C@H]5C[C@@H]5F)n4)ccc3C)cnn2c1 [Example 58] | < 100 | < 100
11 | Cc1ccc(-c2noc([C@H]3C[C@@H]3F)n2)cc1NC(=O)c1cnn2ccc(-c3cnc(C4CC4)nc3)cc12 [Example 160] | < 100 | < 100
12 | Cc1ccc(-c2noc([C@H]3C[C@@H]3F)n2)cc1NC(=O)c1cnn2ccc(Cl)cc12 [Example 59] | < 100 | 100 to 1000
13 | Cc1ccc(-c2noc([C@H]3C[C@@H]3F)n2)cc1NC(=O)c1cnn2ccc(-c3ccc(N4CC5(COC5)C4)nc3C)cc12 [Example 171-19] | < 100 | < 100
14 | Cc1ccc(-c2noc([C@H]3C[C@@H]3F)n2)cc1NC(=O)c1cnn2ccc(N3CC4CCC3CN4C(=O)OC(C)(C)C)cc12 (stereo partly drawn) [Example 210] | 100 to 1000 | 100 to 1000
15 | Cc1ccc(-c2noc([C@H]3C[C@@H]3F)n2)cc1NC(=O)c1cnn2cc(-c3cnnn3CC(F)(F)F)ccc12 [Example 121] | > 1000 | > 1000
16 | Cc1ccc(-c2noc([C@H]3C[C@@H]3F)n2)cc1NC(=O)c1cnn2ccc(CN3CCOCC3)cc12 [Example 70] | < 100 | 100 to 1000
17 | Cc1ccc(-c2noc([C@H]3C[C@@H]3C(F)F)n2)cc1NC(=O)c1cnn2ccc(N3CC4(COC4)C3)cc12 [Example 278] | < 100 | < 100
18 | Cc1ccc(-c2noc([C@H]3C[C@@H]3F)n2)cc1NC(=O)c1cnc2n1Cc1ccccc1-2 [Example 99] | – | < 100
19 | Cc1ncc(-c2ncc(OC(F)(F)F)cn2)cc1NC(=O)c1cnn2ccc(-c3c(C)nc(N)nc3C)cc12 [Example 364] | – | < 100
20 | Cc1nc(N)nc(C)c1-c1ccn2ncc(C(=O)Nc3cc(-c4noc(C5CN(C(=O)[C@H]6C[C@@H]6F)C5)n4)sc3C)c2c1 [Example 371] | – | > 1000
21 | Cc1ccc(-c2nc([C@H]3C[C@@H]3F)cs2)cc1NC(=O)c1cnn2ccc(N3CC4(COC4)C3)cc12 [Example 309] | – | < 100
22 | Cc1ccc(-c2noc(C3C[C@@H]3F)n2)cc1NC(=O)c1cnn2ccc(N3C[C@H](CS(C)(=O)=O)[C@@H]3C)cc12 (stereo partly drawn) [Example 172] | – | < 100
23 | Cc1nc(N)nc(C)c1-c1ccn2ncc(C(=O)Nc3cc(-c4noc(C5CN(C(=O)OC(C)(C)C)C5)n4)sc3C)c2c1 [Example 369] | – | > 1000
24 | Cc1nc(N)nc(C)c1-c1ccn2ncc(C(=O)Nc3cc(-c4noc([C@H]5C[C@@H](OC(F)(F)F)C5)n4)sc3C)c2c1 [Example 368] | – | 100 to 1000
25 | Cc1nn(-c2ccc(C3CC3)cc2)cc1NC(=O)c1cnn2ccc(N3CC4(COC4)C3)cc12 [Example 372] | – | > 1000
26 | Cc1ccc(-c2noc(C3C[C@@H]3F)n2)cc1NC(=O)c1cnn2ccc(-c3cnn(C(F)F)c3)cc12 (stereo partly drawn) [Example 2a] | – | < 100
27 | Cc1nc(N)nc(C)c1-c1ccn2ncc(C(=O)Nc3cc(-c4noc([C@H]5C[C@@H]5F)n4)sc3C)c2c1 [Example 370] | – | > 1000
28 | Cc1ncc(-c2ccn3ncc(C(=O)Nc4cc(-c5noc([C@H]6C[C@@H]6F)n5)ccc4C)c3c2)c(C)n1 [Example 168] | – | < 100
29 | Cc1ccc(-c2noc([C@H]3C[C@@H]3F)n2)cc1NC(=O)c1cnc(-c2cnc(N)nc2)o1 [Example 308-64] | – | > 1000

Second part, led by results:

Row | IC50 [1] [nM] | Compound | EC50 (M-07e cells) [nM]
30 | > 1000 | Cc1ccc(-c2noc([C@H]3C[C@@H]3F)n2)cc1NC(=O)c1cnc(-c2ccc(C(C)(C)O)s2)o1 [Example 308] | > 1000
31 | < 100 | Cc1ccc(-c2noc(N3CC(O)(C(F)(F)F)C3)n2)cc1NC(=O)c1cnn2ccc(N3CC4(C3)CC(O)(C(F)F)C4)cc12 [Example 281-99] | < 100
32 | < 100 | Cc1ccc(-c2noc([C@H]3C[C@@H]3F)n2)cc1NC(=O)c1cnc(-c2ccc3cn[nH]c3c2)o1 [Example 294] | 100 to 1000
33 | 100 to 1000 | Cc1ccc(-c2ncc(C(F)(F)F)cn2)cc1NC(=O)c1cnn2ccc(N3CC4(COC4)C3)cc12 [Example 337] | < 100
34 | 100 to 1000 | COC(=O)N1CC(c2nc(-c3cc(NC(=O)c4cnc(-c5ccc6c(c5)CC(=O)N6)o4)c(C)cc3F)no2)C1 [Example 308-59] | 100 to 1000
35 | > 1000 | Cc1ccc(-c2noc([C@H]3C[C@@H]3F)n2)cc1NC(=O)c1cnc(-c2cccc3c2NC(=O)C3)o1 [Example 308-33] | > 1000
36 | < 100 | Cc1ccc(-c2noc([C@H]3C[C@@H]3F)n2)cc1NC(=O)c1cnc(-c2ccc3[nH]ccc3c2)o1 [Example 293] | < 100
37 | 100 to 1000 | COC(=O)N1CC2(CC(c3nc(-c4ccc(C)c(NC(=O)c5cnn6ccc(N7CC8(COC8)C7)cc56)c4)no3)C2)C1 [Example 281-133] | 100 to 1000
38 | 100 to 1000 | Cc1sc(-c2noc([C@H]3C[C@@H](OC(F)(F)F)C3)n2)cc1NC(=O)c1cnn2ccc(N3CC4(COC4)C3)cc12 [Example 281-113] | 100 to 1000
39 | > 1000 | Cc1ncc(-c2ncc(OC(F)(F)F)cn2)cc1NC(=O)c1cnc(-c2ccc3c(c2)CC(=O)N3)o1 [Example 358, N-(2-methyl-5-(5-(trifluoromethoxy)pyrimidin-2-yl)pyridin-3-yl)-2-(2-oxoindolin-5-yl)oxazole-5-carboxamide] | 100 to 1000
40 | 100 to 1000 | Cc1ccc(-c2noc([C@H]3C[C@@H]3F)n2)cc1NC(=O)c1cnc(-c2ccc(NS(C)(=O)=O)cc2)o1 [Example 308-22] | 100 to 1000
41 | > 1000 | Cc1ccc(-c2noc([C@H]3C[C@@H]3F)n2)cc1NC(=O)c1cnc(-c2ccc(NC(=O)OC(C)(C)C)nc2)o1 [Example 298] | 100 to 1000
42 | < 100 | O=C(Nc1cc(-c2noc(N3CC(O)(C(F)(F)F)C3)n2)ccc1Cl)c1cnn2ccc(N3CC4(COC4)C3)cc12 [Example 281-123] | < 100
43 | 100 to 1000 | Cc1ccc(-c2noc([C@H]3C[C@@H]3F)n2)cc1NC(=O)c1cnc(-c2ccc3[nH]c(C#N)cc3c2)o1 [Example 308-1] | 100 to 1000
44 | > 1000 | Cc1sc(-c2noc(C3(F)CN(C(=O)[C@H]4C[C@@H]4F)C3)n2)cc1NC(=O)c1cnn2ccc(N3CC4(C3)CC(O)(C(F)F)C4)cc12 [Example 281-111] | 100 to 1000
45 | < 100 | Cc1sc(-c2noc([C@H]3C[C@@H](OC(F)(F)F)C3)n2)cc1NC(=O)c1cnn2ccc(N3CC4(C3)CC(O)(C(F)F)C4)cc12 [Example 281-112] | 100 to 1000
